In patent publication US6784177B2, “Methods using hydralazine compounds and isosorbide dinitrate or isosorbide mononitrate” (Nitro Med, Inc., priority 1999, dated 2004):
Like-named read-outs stand apart in the source and are kept apart here.

How the values were obtained:
[1] = tested on: male patients with heart failure; assay: V-HeFT II change in radiographic cardiothoracic ratio; format: in vivo, human; settings: white patients
Description: (§1) Drug administration was double-blind.

[2] = tested on: male patients with heart failure; assay: V-HeFT II peak exercise oxygen consumption (MVO2), bicycle-ergometer exercise test; format: in vivo, human
Protocol: “Oxygen consumption” was measured during a progressive maximal bicycle-ergometer exercise test taken while the expired air was collected continuously to monitor oxygen consumption. […] Patients with pulmonary diseases, obstructive valvular diseases and the like, tend to have a low oxygen consumption. An increase in a patient's oxygen consumption typically results in the patient's increased exercise tolerance and implies that the patient would have an improved quality of life.
as §1

[3] = tested on: male patients with heart failure; assay: V-HeFT II hospitalization; format: in vivo, human
Description: as §1

[4] = tested on: male patients with heart failure; assay: V-HeFT II change in systolic blood pressure; format: in vivo, human
Description: as §1

[5] = tested on: male patients with heart failure; assay: V-HeFT II quality of life, Heart Condition Assessment (HCA) questionnaire; format: in vivo, human; settings: black patients, at 12 months, negative = improved, positive = worsened, p=0.043
Protocol: “Quality of life” refers to one or more of a persons ability to walk, climb stairs, do errands, work around the house, participate in recreational activities, and/or not requiring rest during the day, and/or the absence of sleeping problems or shortness of breath. The quality of life was measured using the Heart Condition Assessment (HCA) questionnaire. The questionnaire was self-administered after brief standardization instructions. The score was obtained by summing the ranks of the responses to each question.
as §1

[6] = tested on: black and white subgroups; assay: black:white relative risk in placebo and enalapril groups (trial not named); format: in vivo, human; settings: enalapril group; placebo group 1.15
[7] = tested on: male patients with heart failure; assay: V-HeFT II mortality (Kaplan-Meier, log-rank); format: in vivo, human
Description: as §1

[8] = tested on: male patients with heart failure; assay: V-HeFT II change in radionuclide left ventricular ejection fraction; format: in vivo, human; settings: both racial groups
Description: as §1

[9] = tested on: male patients with heart failure; assay: V-HeFT II change in plasma norepinephrine (radioenzymatic assay); format: in vivo, human; settings: either racial group
Description: as §1

[10] = tested on: male patients with heart failure; assay: V-HeFT I hospitalization; format: in vivo, human
Description: as §1

[11] = tested on: male patients with heart failure; settings: V-HeFT I
Protocol: Baseline measurements were restricted to the test done at the time of randomization. Change in measurements from baseline were compared between black and white patients using t-tests performed for each scheduled follow-up. […] Survival curves were compared by the log-rank test. Survival in black and white patients was further analyzed by presence or absence of a history of hypertension.
In the present invention, an interaction analysis between race and treatment was performed for both V-HeFT I and II, adjusting for baseline imbalances.
Male patients were screened for participation in the study on the basis of a history of heart failure or documentation of left ventricular enlargement or dysfunction by chest radiography, echocardiography or radionuclide ventriculography. The specific ventricular imaging requirement for entry was one of the following: a radiographic cardiothoracic ratio >0.55, an echocardiographic left ventricular end-diastolic diameter >2.7 cm/m^2 body surface area or radionuclide left ventricular ejection fraction <0.45. In addition, patients were eligible for entry only if they had reduced maximal exercise tolerance. This was defined as a measured peak oxygen consumption (VO2)<25 ml/kg per min during a progressive bicycle ergometer exercise test.
Nearly all patients were receiving background therapy with diuretic and/or digoxin. […] Full doses of the vasodilator regimens in V-HeFT I were prazosin 5 mg four times daily, the combination of hydralazine 75 mg and isosorbide dinitrate 40 mg four times daily, or placebo. […] Drug administration was double-blind. All patients were studied for the duration of the trial and for a minimum of 6 months or until death.

Question: With `CCOC(=O)[C@H](CCc1ccccc1)N[C@@H](C)C(=O)N1CCC[C@H]1C(=O)O` [enalapril] as the compound, how does the “reduction in radiographic heart size (cardiothoracic ratio) during follow-up” value [1] read?
Answer: The value was “persisted through 3 years”.

Question: What about the “mean improvement (increase) from baseline in MVO2, adjusted for differences in baseline characteristics” value ([2]; black patients, 12 months, p=0.15) of the same compound?
Answer: Its value is 0.6 mL/h/kg.

Question: What about the “decrease from baseline in MVO2” value ([2]; black patients, 12 months, unadjusted, p=0.19) of the same compound?
Answer: Its value is 2.82 mL/h/kg.

Question: What about the “effect on oxygen consumption (MVO2)” value ([2]; both black and white patients, 13 weeks) of the same compound?
Answer: Its value is “did not improve”.

Question: And the “patients hospitalized for CHF (%)” value ([3]; black patients)?
Answer: Its value is 22.6%.

Question: And the “patients hospitalized for any reason (%)” value ([3]; black patients)?
Answer: Its value is 61.3%.

Question: And the “patients hospitalized for CHF (%)” value ([3]; white patients)?
Answer: The value was 17.5%.

Question: What about the “patients hospitalized for any reason (%)” value ([3]; white patients) of the same compound?
Answer: The value was 62.0%.

Question: And the “systolic blood pressure after the initial fall” value ([4]; black patients)?
Answer: Its value is “recovered by 13 weeks”.

Question: And the “systolic blood pressure after the initial fall” value ([4]; white patients, 4.5 years of follow-up)?
Answer: The value was “remained lower thereafter”.

Question: What about the “quality of life score (HCA questionnaire)” value [5] of the same compound?
Answer: Its value is “+1.04”.

Question: And the “black:white relative risk” value [6]?
Answer: The value was 1.34.

Question: What about the “deaths among treated patients” value ([7]; black patients, of 106 on enalapril, of 109 on hydralazine-isosorbide dinitrate) of the same compound?
Answer: Its value is 39.

Question: What about the “annual mortality rate (AMR)” value ([7]; black patients, p=NS) of the same compound?
Answer: The value was 12.8%.

Question: What about the “mortality reduction with enalapril compared to hydralazine and isosorbide dinitrate” value ([7]; white patients with a history of hypertension, p<0.02) of the same compound?
Answer: Its value is “significant mortality reduction”.

Question: What about the “annual mortality rate (AMR)” value ([7]; white patients, log rank p=0.02) of the same compound?
Answer: The value was 11.0%.

Question: What about the “deaths among treated patients” value ([7]; white patients, of 292 on enalapril, of 282 on hydralazine-isosorbide dinitrate) of the same compound?
Answer: Its value is 90.

Question: What about the “mortality reduction with enalapril compared to hydralazine and isosorbide dinitrate” value ([7]; whites or blacks without hypertensive history, blacks with hypertensive history) of the same compound?
Answer: The value was “did not differ”.

Question: And the “radionuclide ejection fraction (EF) response” value [8]?
Answer: The value was “rose”.

Question: And the “change in plasma norepinephrine (PNE)” value [9]?
Answer: The value was “not apparent”.

Question: What does the source list for `COc1cc2nc(N3CCN(C(=O)c4ccco4)CC3)nc(N)c2cc1OC` [prazosin]?
Answer: patients hospitalized for CHF (%) ([10]; black patients): 23. %; patients hospitalized for any reason (%) ([10]; black patients): 40.4%; patients hospitalized for CHF (%) ([10]; white patients): 31.5%; patients hospitalized for any reason (%) ([10]; white patients): 35.4%; annual mortality rate (AMR) ([11]; black patients, placebo AMR 17.3%): 15.4%; treatment benefit on survival ([11]; white patients, vs placebo (FIG. 2B)): absence of demonstrable treatment benefit; annual mortality rate (AMR) ([11]; white patients, placebo AMR 18.8%, p=NS): 22.1%
